Source: patent US8927717B1, “Thiochromeno[2,3-c]quinolin-12-one derivatives, preparation method and application thereof” (National Defense Medical Center, priority 2014, dated 2015)

Key:
Type in all cases: cell-based
PC-3 = conditions: PC-3; 10^−5 molar
RPMI-8226 = conditions: RPMI-8226; 10^−5 molar
CCRF-CEM = conditions: CCRF-CEM; 10^−5 molar
SK-OV-3 = conditions: SK-OV-3; 10^−5 molar
BT-549 = conditions: BT-549; 10^−5 molar
OVCAR-8 = conditions: OVCAR-8; 10^−5 molar
TK-10 = conditions: TK-10; 10^−5 molar
NCI/ADR-RES = conditions: NCI/ADR-RES; 10^−5 molar
A549/ATCC = conditions: A549/ATCC; 10^−5 molar
HCT-15 = conditions: HCT-15; 10^−5 molar
RXF 393 = conditions: RXF 393; 10^−5 molar
OVCAR-5 = conditions: OVCAR-5; 10^−5 molar
KM12 = assay: cells; conditions: KM12; 10^−5 molar
SK-MEL-5 = conditions: SK-MEL-5; 10^−5 molar
NCI-H522 = conditions: NCI-H522; 10^−5 molar
786-0 = conditions: 786-0; 10^−5 molar
MOLT-4 = conditions: MOLT-4; 10^−5 molar
60 cancer cell lines = assay: NCI 60-cell screen, SRB, whole panel (mean, delta, range); conditions: 10^−5 molar; for Growth percent, Delta: delta over panel; for Growth percent, Mean: mean over panel; for Growth percent, Range: range over panel
DU-145 = conditions: DU-145; 10^−5 molar
SN12C = conditions: SN12C; 10^−5 molar
HCT-116 = conditions: HCT-116; 10^−5 molar
NCI-H23 = conditions: NCI-H23; 10^−5 molar
MALME-3M = conditions: MALME-3M; 10^−5 molar
UACC-62 = conditions: UACC-62; 10^−5 molar
SF-268 = conditions: SF-268; 10^−5 molar
MDA-MB-486 = conditions: MDA-MB-486; 10^−5 molar
T-47D = conditions: T-47D; 10^−5 molar
MDA-MB-231/ATCC = conditions: MDA-MB-231/ATCC; 10^−5 molar
A498 = conditions: A498; 10^−5 molar
SR = conditions: SR; 10^−5 molar
MCF7 = conditions: MCF7; 10^−5 molar
K-562 = conditions: K-562; 10^−5 molar
NCI-H226 = conditions: NCI-H226; 10^−5 molar
MDA-MB-435 = conditions: MDA-MB-435; 10^−5 molar
UO-31 = conditions: UO-31; 10^−5 molar
U251 = conditions: U251; 10^−5 molar
LOX IMVI = conditions: LOX IMVI; 10^−5 molar
SF-295 = conditions: SF-295; 10^−5 molar
SK-MEL-28 = conditions: SK-MEL-28; 10^−5 molar

O=c1c2cc(Cl)ccc2sc2c(NCCN3CCOCC3)nc3ccccc3c12 [Compound N16, 10-Chloro-6-((2-morpholinoethyl)amino)-12H-thiochromeno[2,3-c]quinolin-12-one]
Growth percent (PC-3): 67.82% | Growth percent (RPMI-8226): 92.20% | Growth percent (CCRF-CEM): 82.21% | Growth percent (SK-OV-3): 85.34% | Growth percent (BT-549): 91.21% | Growth percent (OVCAR-8): 92.43% | Growth percent (TK-10): 76.67% | Growth percent (NCI/ADR-RES): 77.03% | Growth percent (A549/ATCC): 95.12% | Growth percent (HCT-15): 58.81% | Growth percent (RXF 393): 93.21% | Growth percent (OVCAR-5): 68.98% | Growth percent (KM12): 68.16% | Growth percent (SK-MEL-5): 91.61% | Growth percent (NCI-H522): 76.66% | Growth percent (786-0): 83.16% | Growth percent (MOLT-4): 80.91% | Growth percent, Delta (60 cancer cell lines): 62.71% | Growth percent, Mean (60 cancer cell lines): 80.38% | Growth percent, Range (60 cancer cell lines): 88.85% | Growth percent (DU-145): 93.09% | Growth percent (SN12C): 95.98% | Growth percent (HCT-116): 81.64% | Growth percent (NCI-H23): 83.07% | Growth percent (MALME-3M): 78.79% | Growth percent (UACC-62): 94.58% | Growth percent (SF-268): 79.49% | Growth percent (MDA-MB-486): 74.34% | Growth percent (T-47D): 47.63% | Growth percent (MDA-MB-231/ATCC): 59.20% | Growth percent (A498): 80.54% | Growth percent (SR): 67.74% | Growth percent (MCF7): 51.69% | Growth percent (K-562): 17.67% | Growth percent (NCI-H226): 94.09% | Growth percent (MDA-MB-435): 98.93% | Growth percent (UO-31): 54.16% | Growth percent (U251): 76.34% | Growth percent (LOX IMVI): 67.43% | Growth percent (SF-295): 102.17% | Growth percent (SK-MEL-28): 98.56%

CN(C)CCCNc1nc2ccccc2c2c(=O)c3cc(Cl)ccc3sc12 [Compound N17, 10-Chloro-6-((3-(dimethylamino)propyl)amino)-12H-thiochromeno[2,3-c]quinolin-12-one]
Growth percent (PC-3): 81.31% | Growth percent (RPMI-8226): 78.66% | Growth percent (CCRF-CEM): 69.06% | Growth percent (SK-OV-3): 99.91% | Growth percent (BT-549): 99.81% | Growth percent (OVCAR-8): 98.38% | Growth percent (TK-10): 108.89% | Growth percent (NCI/ADR-RES): 96.94% | Growth percent (A549/ATCC): 81.19% | Growth percent (HCT-15): 80.92% | Growth percent (RXF 393): 76.32% | Growth percent (OVCAR-5): 106.26% | Growth percent (KM12): 97.75% | Growth percent (SK-MEL-5): 91.73% | Growth percent (NCI-H522): 98.76% | Growth percent (786-0): 93.30% | Growth percent (MOLT-4): 70.71% | Growth percent, Delta (60 cancer cell lines): 44.56% | Growth percent, Mean (60 cancer cell lines): 85.32% | Growth percent, Range (60 cancer cell lines): 68.13% | Growth percent (DU-145): 97.29% | Growth percent (SN12C): 83.63% | Growth percent (HCT-116): 70.19% | Growth percent (NCI-H23): 100.25% | Growth percent (MALME-3M): 100.91% | Growth percent (UACC-62): 102.63% | Growth percent (SF-268): 87.67% | Growth percent (MDA-MB-486): 43.26% | Growth percent (T-47D): 79.82% | Growth percent (MDA-MB-231/ATCC): 73.39% | Growth percent (A498): 78.57% | Growth percent (SR): 48.48% | Growth percent (MCF7): 51.20% | Growth percent (K-562): 47.53% | Growth percent (NCI-H226): 81.01% | Growth percent (MDA-MB-435): 93.04% | Growth percent (UO-31): 72.62% | Growth percent (U251): 84.19% | Growth percent (LOX IMVI): 66.16% | Growth percent (SF-295): 95.14% | Growth percent (SK-MEL-28): 99.63%
